Values joined by “and” are separate entries in the source; they are usually repeats but may differ in a detail not shown here. Identical values can stand only once.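 1) Cells in 96-well plates. 2) Compound, 48 h, 5 concentrations. 3) Linear interpolation between surrounding doses. 4) Unreached endpoint = highest concentration. GI50 = concentration required for 50% inhibition of growth. TGI is the concentration that stops growth completely.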
Columns and labels:
Assay in all cases: inhibition of tumour cell growth, NCI panel, 48 h
HOP-62 NSCLC = system: HOP-62 NSCLC
IGROV1 ovarian = system: IGROV1 ovarian
M14 melanoma = system: M14 melanoma
MOLT-4 leukemia = system: MOLT-4 leukemia
SF-268 CNS = system: SF-268 CNS
SK-MEL-28 melanoma = system: SK-MEL-28 melanoma
SK-OV-3 ovarian = system: SK-OV-3 ovarian
SN12C renal = system: SN12C renal
U251 CNS = system: U251 CNS
UACC-62 melanoma = system: UACC-62 melanoma

| Compound | GI50 (HOP-62 NSCLC) | TGI (HOP-62 NSCLC) | GI50 (IGROV1 ovarian) | TGI (IGROV1 ovarian) | GI50 (M14 melanoma) | TGI (M14 melanoma) | GI50 (MOLT-4 leukemia) | TGI (MOLT-4 leukemia) | GI50 (SF-268 CNS) | TGI (SF-268 CNS) | GI50 (SK-MEL-28 melanoma) | TGI (SK-MEL-28 melanoma) | GI50 (SK-OV-3 ovarian) | TGI (SK-OV-3 ovarian) | GI50 (SN12C renal) | TGI (SN12C renal) | GI50 (U251 CNS) | TGI (U251 CNS) | GI50 (UACC-62 melanoma) | TGI (UACC-62 melanoma) |
| --- | --- | --- | --- | --- | --- | --- | --- | --- | --- | --- | --- | --- | --- | --- | --- | --- | --- | --- | --- | --- |
| CCOC(=O)CCCn1c(SC)nc2[nH]cc(-c3ccccc3)c2c1=O | 11 µM | 40.4 µM | 16.5 µM | 47 µM | 15.4 µM | 31.6 µM | 0.489 µM | 10.1 µM | 20.8 µM | 87.8 µM | 17.6 µM | 37.1 µM | 25.6 µM | 93.6 µM | 17 µM | 49.9 µM | 16.8 µM | 58.5 µM | 11.2 µM | 25.1 µM |
| CC(CCC=O)CCOCc1ccccc1 (configuration not stated) | – | > 100 µM | – | > 100 µM | – | > 100 µM | – | > 61.6 µM | – | > 100 µM | – | > 100 µM | – | > 100 µM | – | > 100 µM | – | > 100 µM | – | > 100 µM |
| CCN1CCN(C(c2ccc(C(F)(F)F)cc2)c2ccc3cccnc3c2O)CC1 (configuration not stated) | 1.32 µM | 13.7 µM | 2.04 µM | 12.4 µM | 1.7 µM | 5.87 µM | 2.12 µM | 6.05 µM | 1.36 µM | 12.8 µM | 3.68 µM | 16.6 µM | 3.84 µM | 16.8 µM | 2.27 µM | 15.3 µM | 0.658 µM | 11.4 µM | 1.98 µM | 10.4 µM |
| O=C(O)C1C2C=CC(O2)C1C(=O)NCc1ccccn1 (configuration not stated) | – | > 100 µM | – | > 100 µM | – | > 100 µM | – | > 100 µM | – | > 100 µM | – | > 100 µM | – | > 100 µM | – | > 100 µM | – | > 100 µM | – | > 100 µM |
| O=C1c2cccc(NCCCNCCO)c2C(=O)c2cccc(NCCCNCCO)c21 | – | 6.38 µM and 6.71 µM | – | 8.22 µM and 9.3 µM | – | 4.3 µM and 8.78 µM | – | 13.1 µM and 8.29 µM | 0.58 µM and 1.5 µM | 2.82 µM and 4.69 µM | – | 3.99 µM and 3.84 µM | – | 7.23 µM | – | 6 µM and 5.31 µM | 0.536 µM and 1.4 µM | 2.13 µM and 4.46 µM | – | 3.25 µM and 4.33 µM |
| Clc1nc2ccccc2nc1CI | 13.4 µM | 30.6 µM | 6.47 µM | 17 µM | 3.32 µM | 12.6 µM | 1.75 µM | 12.2 µM | 5.23 µM | 17.9 µM | 9.31 µM | 23 µM | 14.3 µM | 30.4 µM | 4.15 µM | 15.6 µM | 7.38 µM | 20.8 µM | 4.32 µM | 16.5 µM |

Reference: PubChem BioAssay (NCI)
